Earlier results as cited in patent publication EP0374532B1, “Improved phase separation-microencapsulated pharmaceutical compositions useful for alleviating dental disease” (AMERICAN CYANAMID COMPANY, priority 1988, dated 1990).

Conditions: human periodontal fluid versus serum

- levels in human periodontal fluid higher than serum levels: five
SMILES: CN(C)c1ccc(O)c2c1C[C@H]1C[C@H]3[C@H](N(C)C)C(O)=C(C(N)=O)C(=O)[C@@]3(O)C(O)=C1C2=O [minocycline, 7-dimethylamino-6-deoxy-6-demethyltetracycline]
